Data reported in patent US10828368B2, “Therapeutic treatments using centhaquin” (MIDWESTERN UNIVERSITY, priority 2009, dated 2020).
Entries after “also recorded” stand apart in the source; their conditions may differ. Where a name gives a salt, the structure may show the parent alone. Read-outs that look alike come from different tables or passages of the source. Ends that are not written are not given here.

Tests used:
[1] = test system: urethane anaesthetized rats; experiment: Cardiovascular response (MAP, PP, HR) of drugs in urethane anaesthetized rats; type: in vivo, rat; conditions: for decrease in HR after centhaquin in antagonist treated rats, compared to baseline / decrease in MAP after centhaquin in antagonist treated rats, compared to baseline / decrease in PP after centhaquin in antagonist treated rats, compared to baseline / potentiation of centhaquin hypotensive effect compared to vehicle treated rats / potentiation of centhaquin-induced decrease in HR (bradycardia) compared to vehicle treated rats: TAK-044 1 mg/kg or BMS-182874 9 mg/kg + centhaquin 0.15 mg/kg; for maximum decrease in PP after clonidine in antagonist treated rats, compared to baseline / reduction in MAP after clonidine in antagonist treated rats, compared with the baseline: TAK-044 1 mg/kg or BMS-182874 9 mg/kg + clonidine 10 μg/kg; for change in MAP, PP and HR, antagonist alone: TAK-044 1 mg/kg or BMS-182874 9 mg/kg alone; for Bradycardia, Centhaquin, percent change / Decrease in pulse pressure, Centhaquin, percent change / Hypotension, Centhaquin, percent change: centhaquin 0.33 mg/kg [sic], compared to centhaquin response in control rats; for fall in MAP / decrease in PP: compared to baseline
Source text: Rats were anaesthetized with urethane (1.5 g/kg i.p.) and prepared for the determination of hemodynamic parameters (Gulati and Srimal, 1993; Gulati et al., 1997b). The anesthetized rats were shaved and immobilized to prepare for cannulation. A 2-3 cm incision was made above the femoral vein and artery, and the vessels were dissected and cleaned. The left femoral vein was cannulated (PE-50 tubing, Clay Adams, Parsipanny, N.J.) and secured for drug administration. An ultra-miniature Pressure transducer SPR-320 (2F Polyurethane), with a single pressure sensor side mounted at the tip (Millar Instruments, Houston, Tex.), was inserted in the left femoral artery to acquire the hemodynamic signals. Pressure transducer was connected to bridge amplifier (ML221 Bridge Amp; AD Instruments, Mountain View, Calif., USA) with Viking connector (AEC-10C) and the signals were continuously acquired at a sampling rate of 1000 S^−1 using Millar PowerLab 16/30 data acquisition system (AD Instruments, Mountain View, Calif., USA). MAP, HR, and PP were determined and analyzed with LabChart-5.00 software program (Millar Instruments). After the experiment was completed, the animals were euthanized with higher dose of urethane (3 gm/kg).
The animals were allowed to stabilize for at least 20 min following surgical procedures.
In the above studies, all drugs were injected through the left femoral vein and changes in MAP, HR, and PP after clonidine and centhaquin injection were recorded for 1 hour using Millar PowerLab 16/30 data acquisition system.

[2] = test system: 5-HT1 receptors in the medulla; conditions: cited from earlier work
[3] = test system: α-adrenergic receptors in the hypothalamus and medulla; conditions: chronic administration in rats; with hypotension and bradycardia; cited from earlier work
[4] = Arterial blood gas analysis before and one hour after drug; type: in vivo, rat
Source text: Arterial blood pH, pO2, pCO2, Na^+, K^+, and lactate were monitored prior to and after drug administration. Blood samples were drawn from the arterial cannula using blood gas sampling syringes (Innovative Medical Technologies, Inc. Leawood, Kans.) and analyzed using a GEM Premier 3000 unit (Instrument Laboratory, Lexington, Mass.).
Blood samples were drawn from the arterial cannula using blood gas sampling syringes (Innovative Medical Technologies, Inc. Leawood, Kans.) and analyzed using a GEM Premier 3000 unit (Instrument Laboratory, Lexington, Mass.).

rats = conditions: clonidine given intravenously in cervical sectioned rats; cited from earlier work
[5] = test system: rat abdominal aortic ring; experiment: Clonidine response on the abdominal aortic ring; conditions: for EC50: Rattus norvegicus, read-out: ED50 value, aortic ring contraction
Procedure: The abdominal aorta was isolated and dissected out from urethane (1.5 g·kg^−1 i.p.) anesthetized rats and was transferred to Krebs bicarbonate buffer pH 7.4 (composition in mM, NaCl, 112.0; KCl, 4.7; KH2PO4, 1.2; MgSO4, 1.2; CaCl2, 2.5; NaHCO3, 25.0; glucose, 11.0) with continuous supply of 95% O2 and 5% CO2 at 37±1° C. The tissue was cut into ring segments (3 mm in length) and mounted in organ baths using 10 mm Radnoti glass ring supports. Extra care was taken while cutting and mounting the ring segment to prevent loss of endothelial layer. Tissue was equilibrated for 45 min by applying 2 g of tension with regular buffer change after every 15 min. Vessels were pre-contracted with 100 mM KCl to determine the viability. Clonidine-induced contractions of aortic ring were measured using Radnoti 8 unit tissue bath (Radnoti Glass Technology, Monrovia, Calif.) and the force transducer coupled with a Grass P7D polygraph. The dose response was recorded for 0.25, 0.5, 1, 2, 4, 6, 8, and 10 μM of clonidine with or without ET-1 (4 nM) treatment and ED50 value was calculated. Experiments were performed in Group 1: Vehicle+Clonidine (0.25 to 10 μM); and Group 2: ET-1 (4 nM)+Clonidine (0.25 to 10 μM) using (n=6) rats in each group.

α2-adrenergic receptors = conditions: higher for α2; cited from earlier work
[6] = ET-1 300 ng/kg + prazosin 0.1 mg/kg + centhaquin 0.15 mg/kg
[7] = one hour after clonidine 90 μg/kg or centhaquin 0.45 mg/kg
[8] = ET-1 100 ng/kg + clonidine 10 μg/kg, compared to vehicle treated rats receiving clonidine
[9] = ET-1 300 ng/kg + clonidine 10 μg/kg, compared to vehicle treated rats receiving clonidine
[10] = ET-1 900 ng/kg + centhaquin 0.15 mg/kg, compared to vehicle treated rats receiving centhaquin
[11] = ET-1 900 ng/kg + clonidine 10 μg/kg, compared to vehicle treated rats receiving clonidine

In the case of `COc1cc2nc(N3CCN(C(=O)c4ccco4)CC3)nc(N)c2cc1OC` [Prazosin], the “effect of prazosin on changes produced in MAP by centhaquin in ET-1 treated rats” value [1, 6] is reported as “completely (p<0.01) blocked”, the “effect of prazosin on decrease in HR induced by centhaquin in ET-1 treated rats” value [1, 6] is reported as “significantly (p<0.05) attenuated” and the “effect of prazosin on decrease in PP induced by centhaquin in ET-1 treated rats” value [1, 6] is reported as “significantly (p<0.001) attenuated”. The “effect of prazosin on changes in MAP and HR by centhaquin in vehicle treated rats” value ([1]; prazosin 0.1 mg/kg + centhaquin 0.15 mg/kg) was “blocked”.

For `Cc1noc(NS(=O)(=O)c2cccc3c(N(C)C)cccc23)c1C` [BMS-182874, (5-Dimethylamino)-N-(3,4-dimethyl-5-isoxazolyl)-1-naphthalene sulfonamide hydrochloride], the “potentiation of centhaquin induced decrease in HR, more than that produced by TAK-044 treatment” value ([1]; BMS-182874 9 mg/kg versus TAK-044 1 mg/kg, centhaquin 0.15 mg/kg) was 18.63%, the “decrease in HR after centhaquin in antagonist treated rats, compared to baseline” value [1] was 35.72% and the “decrease in MAP after centhaquin in antagonist treated rats, compared to baseline” value [1] was 43.46%. The “decrease in PP after centhaquin in antagonist treated rats, compared to baseline” value [1] was 49.68%, the “potentiation of centhaquin hypotensive effect compared to vehicle treated rats” value [1] was 30.67% and the “potentiation of centhaquin-induced decrease in HR (bradycardia) compared to vehicle treated rats” value [1] was 29.00%. For the same compound, the “maximum decrease in PP after clonidine in antagonist treated rats, compared to baseline” value [1] was 44.97%, the “reduction in MAP after clonidine in antagonist treated rats, compared with the baseline” value [1] was 29.44% and the “change in MAP, PP and HR, antagonist alone” value [1] was “no significant change”. For the same compound, the “Bradycardia, Centhaquin, percent change” value [1] was “(29.00%)”, the “Decrease in pulse pressure, Centhaquin, percent change” value [1] was “(28.72%)” and the “Hypotension, Centhaquin, percent change” value [1] was “(30.67%)”.

With “cyclo [D-α-aspartyl-3-[(4-phenylpiperazin-1-yl) carbonyl]-L-alanyl-L-α-aspartyl-D-2-(2-thienyl)glycyl-L-leu-Cyl-D-tryptOphyljdisodium salt [TAK-044]” the “decrease in HR after centhaquin in antagonist treated rats, compared to baseline” value [1] was 21.94%, the “decrease in MAP after centhaquin in antagonist treated rats, compared to baseline” value [1] was 32.31% and the “decrease in PP after centhaquin in antagonist treated rats, compared to baseline” value [1] was 46.49%. For the same compound, the “potentiation of centhaquin hypotensive effect compared to vehicle treated rats” value [1] was 16.48%, the “potentiation of centhaquin-induced decrease in HR (bradycardia) compared to vehicle treated rats” value [1] was 12.74% and the “maximum decrease in PP after clonidine in antagonist treated rats, compared to baseline” value [1] was 52.72%. The “reduction in MAP after clonidine in antagonist treated rats, compared with the baseline” value [1] was 36.59%, the “change in MAP, PP and HR, antagonist alone” value [1] was “no significant change” and the “Bradycardia, Centhaquin, percent change” value [1] was “(12.74%)”. The “Decrease in pulse pressure, Centhaquin, percent change” value [1] was “(23.83%)” and the “Hypotension, Centhaquin, percent change” value [1] was “(16.48%)”.

In the case of `Clc1cccc(Cl)c1NC1=NCCN1` [Clonidine, N-(2,6-dichlorophenyl)-4,5-dihydro-1H-imidazol-2-amine], the “effect of repeated administration on 5-HT1 receptors in the medulla” value [2] is listed as “up-regulation”, the “effect of chronic administration on α-adrenergic receptors in the hypothalamus and medulla” value [3] is listed as “up-regulation” and the “changes in arterial blood pH, pO2, pCO2, Na^+, K^+, lactate and hematocrit” value ([4]; before versus one hour after clonidine 90 μg/kg or centhaquin 0.45 mg/kg) is listed as “no significant changes”. The Hct [4, 7] was 50 ± 4%, the “K^+” value [4, 7] was 4.3 ± 0.6 mmol/L and the “Na^+” value [4, 7] was 139 ± 2 mmol/L. For the same compound, the “arterial blood pH” value [4, 7] was 7.28 ± 0.03, the pCO2 [4, 7] was 46 ± 4 mmHg and the pO2 [4, 7] was 100 ± 14 mmHg. The “decrease in HR” value ([1]; clonidine 10 μg/kg) was 20.84%, the “fall in MAP” value ([1]; clonidine 10 μg/kg i.v.) was 24.02% and the “decrease in PP” value ([1]; clonidine 10 μg/kg) was 33.81%. For the same compound, the “decrease in HR” value ([1]; clonidine 30 μg/kg) was 23.18%, the “fall in MAP” value ([1]; clonidine 30 μg/kg i.v.) was 26.15% and the “decrease in PP” value ([1]; clonidine 30 μg/kg) was 36.39%. The “decrease in HR” value ([1]; clonidine 90 μg/kg) was 23.19%, the “fall in MAP” value ([1]; clonidine 90 μg/kg i.v.) was 19.48% and the “decrease in PP” value ([1]; clonidine 90 μg/kg) was 34.27%. For the same compound, the “dose-response effect on MAP, PP and HR” value ([1]; clonidine 10, 30, 90 μg/kg i.v., centhaquin 0.05, 0.15, 0.45 mg/kg i.v.) was “dose-dependent hypotension and bradycardia; also recorded: dose-dependent fall in mean arterial pressure (MAP), pulse pressure (PP), and a decrease in heart rate (HR)”, the “effect on blood pressure and heart rate” value (rats) was “did not produce any effect” and the EC50 ([5]; ET-1 (4 nM) treated aorta) was 1.81 ± 0.04 µM. For the same compound, the EC50 ([5]; vehicle treated aorta) was 2.64 ± 0.02 µM, the “percent contraction of aorta” value ([5]; clonidine 2 μM, ET-1 (4 nM) treated aorta) was 75.95±1.36% and the “percent contraction of aorta” value ([5]; clonidine 2 μM, vehicle treated aorta) was 51.017±1.70%. The “percent contraction of aorta” value ([5]; clonidine 4 μM, ET-1 treated aorta) was 96.83±0.54%, the “percent contraction of aorta” value ([5]; clonidine 4 μM, vehicle treated aorta) was 80.27±2.48% and the “contraction in rat abdominal aortic ring” value ([5]; clonidine 0.25-10 μM) was “dose-dependent (0.25-10 μM) contraction”. The “binding affinity for α2-adrenergic receptors relative to α1-adrenoreceptors” value (α2-adrenergic receptors) was “approximately 10 fold”.

For “ET-1: endogenous 21-residue peptide endothelin isopeptide, used as ET agonist (CSCSSLMDKECVYFCHLDIIW; not fully specified; ends and bridges not checked; UniProt P05305 53-73, looked up)”, the “decrease in HR produced by centhaquin, ET-1 versus vehicle treated rats” value ([1]; ET-1 100 ng/kg + centhaquin 0.15 mg/kg) was “similar”, the “attenuation of clonidine induced fall in PP” value ([1]; ET-1 100 ng/kg + clonidine 10 μg/kg) was 33.66% and the “attenuation of clonidine-induced decrease in HR” value [1, 8] was 18.01%. For the same compound, the “attenuation of clonidine-induced fall in MAP” value [1, 8] was 27.63%, the “effect on centhaquin-induced decrease in HR” value ([1]; ET-1 300 ng/kg + centhaquin 0.15 mg/kg) was “significantly attenuated” and the “attenuation of clonidine-induced decrease in HR” value [1, 9] was 21.00%. The “attenuation of clonidine-induced decrease in MAP” value [1, 9] was 27.41%, the “attenuation of centhaquin-induced decrease in HR (increase in HR compared to untreated rats)” value [1, 10] was 21.44% and the “attenuation of centhaquin-induced decrease in MAP (increase in MAP compared to untreated rats)” value [1, 10] was 33.48%. The “attenuation of clonidine-induced decrease in HR (increase in HR compared to untreated rats)” value [1, 11] was 37.42%, the “attenuation of clonidine-induced decrease in MAP (increase in MAP compared to untreated rats)” value [1, 11] was 42.58% and the “change in HR compared to baseline, ET-1 alone” value ([1]; ET-1 100, 300 and 900 ng/kg) was “no change”. The “change in MAP compared to baseline, ET-1 alone” value ([1]; ET-1 100, 300 and 900 ng/kg) was “fall (p<0.001) followed by significant rise”, the “effect of ET-1 treatment on clonidine-induced fall in MAP” value ([1]; ET-1 100, 300 and 900 ng/kg i.v., clonidine 10 μg/kg i.v., dose-dependent manner) was “significantly attenuated” and the “effect of ET-1 treatment on centhaquin-induced fall in MAP” value ([1]; ET-1 100, 300 and 900 ng/kg, centhaquin 0.15 mg/kg i.v., dose-dependent manner) was “significantly attenuated”. For the same compound, the “attenuation of centhaquin-induced decrease in MAP” value ([1]; ET-1 100 and 300 ng/kg + centhaquin 0.15 mg/kg) was “small statistically insignificant attenuation”, the “attenuation of clonidine induced fall in PP” value ([1]; ET-1 300 and 900 ng/kg + clonidine 10 μg/kg) was “showed attenuation, but did not reach the level of statistical significance” and the “effect of ET-1 pretreatment on contractile response of clonidine” value ([5]; ET-1 4 nM pretreated aorta) was “significantly potentiated”.
